Experimental data published in paper PMC9618858, “β-Carboline dimers inhibit the tumor proliferation by the cell cycle arrest of sarcoma through intercalating to Cyclin-A2” (Frontiers in Immunology, 2022).

Target: T1, Cyclin-A2 (CCNA2) (Homo sapiens, UniProt P20248)
T1 construct: recombinant human CCNA2 (rCCNA2), GST-tagged expression in BL21 (DE3), tag cleaved
Assay: ITC with purified CCNA2; supported by CETSA in MG-63 lysate and co-IP (blocks CCNA2-CDK2)
Format: binding

T1 sequence (P20248 whole entry): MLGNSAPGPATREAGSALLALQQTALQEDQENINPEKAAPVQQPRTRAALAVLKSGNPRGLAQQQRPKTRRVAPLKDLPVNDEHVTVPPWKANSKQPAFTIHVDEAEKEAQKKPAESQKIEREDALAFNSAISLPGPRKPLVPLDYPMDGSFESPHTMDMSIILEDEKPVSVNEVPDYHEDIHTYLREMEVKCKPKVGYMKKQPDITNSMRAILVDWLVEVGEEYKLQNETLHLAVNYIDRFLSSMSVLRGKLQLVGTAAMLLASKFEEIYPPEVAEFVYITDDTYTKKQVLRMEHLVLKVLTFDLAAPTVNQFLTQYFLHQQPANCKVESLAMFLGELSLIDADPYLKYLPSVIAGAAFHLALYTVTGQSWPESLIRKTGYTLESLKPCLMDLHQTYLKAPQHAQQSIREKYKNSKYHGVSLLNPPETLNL

Cc1ccccc1Cn1c2ccccc2c2cc(C(=O)OCCCCCOC(=O)c3cc4c5ccccc5n(Cc5ccccc5C)c4cn3)ncc21 [Comp1]
Kd: 2900 µM
